# Data taken from patent US10517952B2, “Nucleophile-triggered degradable materials and methods of making and using the same” (GEORGIA TECH RESEARCH CORPORATION, priority 2014, dated 2019).
# Assay: Release of entrained cargo from PEG-OND hydrogels
# Type: physicochemical
# Settings: pH 7.4 PBS, 37° C.; first-order fit
# Method: Finally, the diffusion of entrained, rather than covalently anchored, cargos of different sizes out of OND hydrogels of differing stabilities was measured. This was done with a small molecule (carboxyfluorescein), a globular protein (fluorescein-labeled bovine serum albumin, BSA), and a 30-nm protein nanoparticle (fluorescein-labeled bacteriophage Qb virus-like particle). The first and last species have no available thiol groups; the second was reacted with N-ethylmaleimide before gelation to cap cysteine-34 and avoid tethering of the protein cargo to the hydrogel network. Hydrogels derived from 4-PEG-SH and 7a, 7b, or 8 were formed in the presence of each cargo; the speed of this reaction made it highly unlikely that OND connectors were addressed by protein amine groups under these conditions.
# Three sets of three 60 μL gels were prepared using linkers 7a, 7b, and 8, respectively. The first set contained 1 mM small molecule probe 5/6-carboxyfluorescein, while the second and third sets contained FITC labeled BSA and Qβ virus-like particle, respectively. The gels were allowed to set for 30 minutes at room temperature before dilution with 3 mL of pH 7.4 100 mM phosphate buffered saline. The samples were incubated at 37° C. and the increase in absorbance of the supernatant at 497 nm was monitored. The fraction of released dye was plotted against incubation time. Least-squares kinetic fitting to a first-order rate law was performed for release profiles obtained for carboxyfluorescein cargo, and for the release of BSA from non-degradable PEG-EONB (8) hydrogel (Solver plug-in, Microsoft Excel).
row,Substance,kdiffusion of entrained cargo out of PEG-OND hydrogels [s⁻¹]
1,5/6-carboxyfluorescein [reference compound],0.000183 ± 8.3e-06
2,"Bovine serum albumin: globular protein cargo, fluorescein-labeled bovine serum albumin",1.4e-05 ± 2.8e-06
